Assay results: PubChem BioAssay (NCI)
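Following 48 hours of exposure in 96-well plates, responses at five concentrations were used to interpolate endpoints linearly. Here, GI50 denotes the concentration required for 50% inhibition of growth. At the TGI there is no net growth.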

Legend:
Assay in all cases: growth of human tumour cells (NCI), 48 h
[1] = system: DMS 273 small cell lung
[2] = system: HOP-92 NSCLC
[3] = system: MALME-3M melanoma
[4] = system: SNB-75 CNS
[5] = system: A498 renal
[6] = system: SF-268 CNS
[7] = system: SF-295 CNS
[8] = system: SK-MEL-2 melanoma
[9] = system: HCC-2998 colon
[10] = system: SR leukemia

Row | SMILES | TGI [1] [µM] | TGI [2] [µM] | TGI [3] [µM] | TGI [4] [µM] | TGI [5] [µM] | TGI [6] [µM] | TGI [7] [µM] | TGI [8] [µM] | TGI [9] [µM] | TGI [10] [µM] | GI50 [5] [µM] | GI50 [9] [µM] | GI50 [2] [µM] | GI50 [3] [µM] | GI50 [6] [µM] | GI50 [7] [µM] | GI50 [8] [µM] | GI50 [4] [µM] | GI50 [10] [µM]
1 | CC1C=CC(=O)C(n2cc(F)c(=O)[nH]c2=O)O1 (stereo not drawn) | 47.4 | 35.5 | 35.5 | 38.2 | – | – | – | – | – | – | – | – | – | – | – | – | – | – | –
2 | CC(=O)O[C@H]1C(=O)[C@@]2(C)C(C(OC(=O)c3ccccc3)[C@]3(O)CC(OC(=O)C(O)C(NC(=O)c4ccc(C)cc4)c4ccccc4)C(C)=C1C3(C)C)[C@]1(OC(C)=O)CO[C@@H]1C[C@@H]2O (stereo partly drawn) | 3.25 | – | 11.5 | 0.0486 | 14.1 | > 25 | 0.107 | 0.0141 | – | – | – | – | – | – | – | – | – | – | –
3 | N#CCCN(c1ccc(-c2nnc(NC(=O)CNNC(=O)CC(=O)Nc3ccccc3)s2)cc1)S(=O)(=O)c1ccccc1 | > 100 | > 100 | > 100 | > 100 | > 100 | > 100 | > 100 | > 100 | > 100 | – | – | – | – | – | – | – | – | – | –
4 | O=C(NO)C12C3C4C1C1C2C3C41C(=O)NO (stereo not drawn) | > 100 | – | > 100 | > 100 | > 100 | > 100 | > 100 | > 100 | > 100 | – | – | – | – | – | – | – | – | – | –
5 | O=C1OC(O)C(Oc2ccc(Cl)cc2)=C1Cl (stereo not drawn) | > 100 | > 100 | > 100 | > 100 | > 100 | > 100 | > 100 | > 100 | > 100 | – | – | – | – | – | – | – | – | – | –
6 | C[C@@]12CCC(=O)C=C1CC[C@H]1C2=CC[C@]2(C)C1CC[C@@]2(C)O (stereo partly drawn) | – | > 100 | > 100 | > 100 | > 100 | > 100 | > 100 | > 100 | > 100 | > 100 | – | – | – | – | – | – | – | – | –
7 | C=C1C(=O)O[C@H]2[C@H]1CC/C(COC(=O)NCc1c[nH]c3ccc(Cl)cc13)=C\CC[C@@]1(C)O[C@@H]21 | – | 3.01 | 3.34 | 2.57 | 4.68 | 3.51 | 4.09 | 2.87 | 3.69 | 3.88 | 1.81 | 1.96 | 1.46 | 1.68 | 1.66 | 1.81 | 1.42 | 1.29 | 0.357
8 | C[C@H]1[C@H](C)CC[C@]2(C(=O)O)CC[C@]3(C)C(=CC[C@@H]4[C@@]5(C)C/C(=C/c6ccco6)C(=O)C(C)(C)[C@@H]5CC[C@]43C)[C@H]12 | – | 12.5 | 22.2 | 71.8 | 33.8 | 22.1 | 15.5 | 30.4 | 15.3 | 50.8 | 11.5 | 3.84 | 2.54 | 8.01 | 5.59 | 3.72 | 10.1 | 18.6 | 4.12
9 | Cc1cc(O)cc2c1O[C@@]1(C)CCC3[C@@]4(C)CC[C@H](O)C(C)(C)C4CC[C@@]3(C)[C@H]1C2 (stereo partly drawn) | 11.6 | 9.78 | 24.1 | 11.8 | 36.3 | – | 6.16 | – | – | – | – | – | – | – | – | – | – | – | –
10 | COC(=O)C1=C(C(=O)OC)C23C=C(C)C1C2=C(C)C1(CC1)[C@@](C)(O)C3=O (stereo partly drawn) | – | 1.53 | 2.16 | 0.547 | 0.49 | 3.07 | – | 0.63 | 0.693 | > 100 | 0.188 | 0.245 | 0.31 | 0.449 | 0.273 | 0.282 | 0.25 | 0.198 | 3.64
11 | O=C(COc1ccccc1)NS(=O)(=O)c1ccccc1 | – | > 100 | > 100 | > 100 | > 100 | > 100 | > 100 | > 100 | > 100 | > 100 | – | – | – | – | – | – | – | – | –
12 | COC1=CC(c2ccc[nH]2)=N/C1=C\c1ccc[nH]1 | – | 1.26 | 4.25 | 1.83 | 14.4 | 15.9 | 3.17 | 0.809 | 9.54 | 1.31 | 3.65 | 0.361 | 0.199 | 0.723 | 0.254 | 0.58 | 0.218 | 0.188 | 0.0222
13 | Nc1c(C(=O)Nc2ccccc2Cl)sc2nc3c(cc12)CCCCCC3 | – | 6.54 | 9.33 | 3.35 | > 100 | 16.7 | 13.6 | 23.1 | > 100 | > 100 | 7.73 | 7.06 | 1.77 | 2.62 | 3.44 | 2.47 | 2.77 | 1.57 | 2.18
14 | N#Cc1ccnc(N2C(=O)CC[C@H]2C(=O)N(c2cncc(F)c2)[C@H](C(=O)NC2CC(F)(F)C2)c2ccccc2Cl)c1 | – | > 100 | > 100 | > 100 | > 100 | > 100 | > 100 | > 100 | > 100 | > 100 | 81.7 | > 100 | 73 | > 100 | 56.2 | > 100 | > 100 | 16.7 | 62.5
15 | Cc1ccccc1CN1CC=c2ccccc2=N1 | > 100 | > 100 | > 100 | > 100 | > 100 | > 100 | > 100 | > 100 | > 100 | – | – | – | – | – | – | – | – | – | –
16 | COc1ccc2nc3ccccc3c(NCCCCCCN(C)CCCl)c2c1 | 1.26 | 1.33 | 2.06 | 2.73 | 2.53 | 2.48 | 2.88 | 1.81 | 1.98 | – | – | – | – | – | – | – | – | – | –
17 | NC(=S)N/N=C1/C(=O)N(c2ccc(Cl)cc2Cl)C(=O)C(=O)C1c1nc2ccccc2s1 (stereo not drawn) | > 100 | > 100 | > 100 | > 100 | – | > 100 | > 100 | > 100 | > 100 | – | – | – | – | – | – | – | – | – | –
18 | COC(=O)C(Cl)=C1CC1 | > 100 | 29.1 | 46.5 | > 100 | > 100 | > 100 | > 100 | > 100 | > 100 | – | – | – | – | – | – | – | – | – | –
19 | CN(C)CCCc1c[nH]c2ccccc12 | – | > 100 | > 100 | > 100 | > 100 | > 100 | > 100 | > 100 | > 100 | > 100 | – | – | – | – | – | – | – | – | –
20 | COc1ccccc1CNCCCN1C(=O)c2ccc3c4c(ccc(c24)C1=O)C(=O)N(CCCNCCCN)C3=O | – | 4.88 | 2.2 | 3.29 | 2.15 | 6.37 | 4.61 | 3.03 | 1.98 | 9.2 | 0.342 | 0.35 | 0.971 | 0.898 | 0.41 | 0.45 | 0.907 | 1.29 | 0.0273
21 | CN(C)CC1(C)CC/C(=C\c2ccccc2)C1=O (stereo not drawn) | > 100 | > 100 | > 100 | > 100 | > 100 | > 100 | > 100 | > 100 | > 100 | – | – | – | – | – | – | – | – | – | –
22 | Cc1ccc(S(=O)(=O)N2CCc3ccc(O)c4c3C2Cc2cc(Cl)ccc2-4)cc1 (stereo not drawn) | – | 3.62 | 9.62 | 2.42 | 2.13 | 9.72 | 6.12 | 3.41 | 5.37 | 4.26 | 0.234 | 1.65 | 0.354 | 2.59 | 2.47 | 1.37 | 1.1 | 0.639 | 1.06
23 | COc1ccc(NC(=O)c2sc3nc(C)c(C(O)c4ccccc4)cc3c2N)cc1 (stereo not drawn) | – | > 100 | 44.9 | 7.22 | 0.704 | > 100 | 18.2 | 85.7 | 24.1 | > 100 | 0.212 | 2.48 | 12.7 | 3.22 | 4.06 | 1.25 | 4.88 | 1.49 | 0.517
24 | Nc1ncnc2c1ncn2C1OC(CO)=CC1O (stereo not drawn) | – | > 37.5 | > 37.5 | > 37.5 | > 37.5 | > 37.5 | > 37.5 | > 37.5 | > 37.5 | > 37.5 | – | – | – | – | – | – | – | – | –
25 | O=C(O)CC/C(=N\Nc1nsc2ccccc12)c1ccc(Cl)cc1 | 41.2 | > 100 | > 100 | 73.1 | 99.4 | > 89.3 | > 100 | > 100 | 36.8 | – | – | – | – | – | – | – | – | – | –
26 | Cc1cc(Cl)ccc1N=C1NC(=O)C(CC(=O)Nc2ccc(Cl)cc2Cl)S1 (stereo not drawn) | > 100 | – | > 100 | > 100 | – | > 100 | > 100 | > 100 | > 100 | – | – | – | – | – | – | – | – | – | –
27 | COc1ccc2c(c1)CCC1C2CC[C@]2(C)/C(=N/OC(=O)Cc3ccccc3)CCC12 (stereo partly drawn) | – | 81 | 37.4 | 47.7 | 45.8 | 34.4 | 33.8 | 48.6 | 35.6 | 33.3 | 21.6 | 19.8 | 25.2 | 20.7 | 18.7 | 16.7 | 18.6 | 19.9 | 14.2
